{
  "source": "patent US5464848A",
  "about": "“1,2,4-oxadiazolyl-phenoxyalkylisoxazoles and their use as antiviral agents” (Sterling Winthrop Inc., priority 1993, dated 1995)",
  "key": {"[1]": {"tested_on": "HRV-14", "experiment": "Inhibition of virus-induced CPE in HeLa cells (MIC), HRV-14", "assay_type": "cell-based, human rhinovirus", "details": "Rhinovirus B, HRV14, 72 h, 3 day incubation at 33° C.", "experimental": "(§1) They are useful in inhibiting virus replication in vitro and are primarily active against picornaviruses, including enteroviruses, echovirus and coxsackie virus, especially rhinoviruses. […] The test procedure used was as follows: The MIC values were determined by an automated tissue culture infectious dose 50% (TCID-50) assay. HeLa cells in monoloyers in 96-well cluster plates were infected with a dilution of virus which had been shown empirically to produce 80% to 100% cytopathic effect (CPE) in 3 days in the absence of drug. The compound to be tested was serially diluted through 10, 2-fold cycles and added to the infected cells. After a 3 day incubation at 33° C. and 2.5% carbon dioxide, the cells were fixed with a 5% solution of glutaraldehyde followed by staining with a 0.25% solution of crystal violet in water. The plates were then rinsed, dried, and the amount of stain remaining in the well (a measure of intact cells) was quantitated with an optical density reader. The MIC was determined to be the concentration of compound which protected 50% of the cells from virus-induced CPE relative to an untreated virus control. […]"}, "[2]": {"tested_on": "human rhinovirus (HRV) serotypes, panel T", "experiment": "MIC50/MIC80 over panel T of fifteen human rhinovirus serotypes (HeLa cell CPE)", "assay_type": "cell-based", "experimental": "(§2) They are useful in inhibiting virus replication in vitro and are primarily active against picornaviruses, including enteroviruses, echovirus and coxsackie virus, especially rhinoviruses. […] The test procedure used was as follows: The MIC values were determined by an automated tissue culture infectious dose 50% (TCID-50) assay. HeLa cells in monoloyers in 96-well cluster plates were infected with a dilution of virus which had been shown empirically to produce 80% to 100% cytopathic effect (CPE) in 3 days in the absence of drug. The compound to be tested was serially diluted through 10, 2-fold cycles and added to the infected cells. After a 3 day incubation at 33° C. and 2.5% carbon dioxide, the cells were fixed with a 5% solution of glutaraldehyde followed by staining with a 0.25% solution of crystal violet in water. The plates were then rinsed, dried, and the amount of stain remaining in the well (a measure of intact cells) was quantitated with an optical density reader. The MIC was determined to be the concentration of compound which protected 50% of the cells from virus-induced CPE relative to an untreated virus control.\nIn the above test procedures, representative compounds of formula I were tested against some the serotypes from either a panel of fifteen human rhinovirus (HRV) serotypes, (noted in the table as panel T) namely, HRV-2, -14, -1A, -1B, -6, -21, -22, -15, -25, -30, -50, -67, -89, -86 and -41 or against some of the serotypes from a panel of 10 human rhinovirus serotypes namely HRV-3, -4, -5, -9, -16, -18, -38, -66, -75 and -61, (noted in the table as panel B) and the MIC value, expressed in micrograms per milliliter ([…]), for each rhinovirus serotype was determined for each virus, example 1e is given as an example of the data. Then MIC50 and MIC80 values, which are the minimum concentrations of the compound required to inhibit 50% and 80%, respectively, of the tested serotypes were determined.\nThe following Table gives the test results for representative compounds of the invention. The panel of viruses used in the test appears before the MIC80 and MIC50 figure and the number of serotypes which the compound is tested against (N) is indicated after the MIC80 and MIC50 figure."}, "[3]": {"tested_on": "15 most commonly isolated nonpolio enteroviruses", "experiment": "MIC for the 15 most commonly isolated nonpolio enteroviruses", "assay_type": "cell-based", "details": "15 nonpolio enteroviruses", "experimental": "as §2\nUsing the method described above, Example 1e was tested against other viruses. […]"}, "[4]": {"tested_on": "HRV-30", "experiment": "Inhibition of virus-induced CPE in HeLa cells (MIC), HRV-30", "assay_type": "cell-based", "details": "Human rhinovirus sp., HRV30, 72 h, 3 day incubation at 33° C.", "experimental": "as §1"}, "[5]": {"tested_on": "HRV-15", "experiment": "Inhibition of virus-induced CPE in HeLa cells (MIC), HRV-15", "assay_type": "cell-based", "details": "Human rhinovirus sp., HRV15, 72 h, 3 day incubation at 33° C.", "experimental": "as §1"}, "[6]": {"tested_on": "HRV-67", "experiment": "Inhibition of virus-induced CPE in HeLa cells (MIC), HRV-67", "assay_type": "cell-based", "details": "Human rhinovirus sp., HRV67, 72 h, 3 day incubation at 33° C.", "experimental": "as §1"}, "[7]": {"tested_on": "coxsackievirus B3", "experiment": "Oral efficacy against coxsackievirus B3 in mice", "assay_type": "in vivo, adult male BALB/c mice"}, "[8]": {"tested_on": "coxsackievirus A21", "experiment": "Oral efficacy against coxsackievirus A21 in weanling ICR mice", "assay_type": "in vivo", "details": "for % Alive at Day 17: oral"}, "[9]": {"tested_on": "HRV-41", "experiment": "Inhibition of virus-induced CPE in HeLa cells (MIC), HRV-41", "assay_type": "cell-based", "details": "Human rhinovirus sp., HRV41, 72 h, 3 day incubation at 33° C.", "experimental": "as §1"}, "[10]": {"tested_on": "HRV-50", "experiment": "Inhibition of virus-induced CPE in HeLa cells (MIC), HRV-50", "assay_type": "cell-based", "details": "Human rhinovirus sp., HRV50, 72 h, 3 day incubation at 33° C.", "experimental": "as §1"}, "[11]": {"tested_on": "HRV-2", "experiment": "Inhibition of virus-induced CPE in HeLa cells, automated TCID-50 assay (MIC), HRV-2", "assay_type": "cell-based, human rhinovirus", "details": "Rhinovirus A, HRV2, 72 h, 3 day incubation at 33° C.", "experimental": "as §1"}, "[12]": {"tested_on": "HRV-25", "experiment": "Inhibition of virus-induced CPE in HeLa cells (MIC), HRV-25", "assay_type": "cell-based", "details": "Human rhinovirus sp., HRV25, 72 h, 3 day incubation at 33° C.", "experimental": "as §1"}, "[13]": {"tested_on": "HRV-89", "experiment": "Inhibition of virus-induced CPE in HeLa cells (MIC), HRV-89", "assay_type": "cell-based, human rhinovirus", "details": "Rhinovirus A, HRV89, 72 h, 3 day incubation at 33° C.", "experimental": "as §1"}, "[14]": {"tested_on": "HRV-1B", "experiment": "Inhibition of virus-induced CPE in HeLa cells (MIC), HRV-1B", "assay_type": "cell-based, human rhinovirus", "details": "Rhinovirus A, HRV1B, 72 h, 3 day incubation at 33° C.", "experimental": "as §1"}, "[15]": {"tested_on": "HRV-22", "experiment": "Inhibition of virus-induced CPE in HeLa cells (MIC), HRV-22", "assay_type": "cell-based", "details": "Human rhinovirus sp., HRV22, 72 h, 3 day incubation at 33° C.", "experimental": "as §1"}, "[16]": {"tested_on": "HRV-1A", "experiment": "Inhibition of virus-induced CPE in HeLa cells (MIC), HRV-1A", "assay_type": "cell-based, human rhinovirus", "details": "Rhinovirus A, HRV1A, 72 h, 3 day incubation at 33° C.", "experimental": "as §1"}, "[17]": {"tested_on": "coxsackievirus A9", "experiment": "Oral efficacy against coxsackievirus A9 in suckling mice, administered once", "assay_type": "in vivo", "details": "Enterovirus B, 60 h, once 2.5 days postinfection, read-out: 50% protective dose", "experimental": "In another study of the oral efficacy of Example 1e against a coxsackievirus A9 infection in suckling mice, in which the compound was administered once 2.5 days postinfection, the 50% protective dose was determined to be 93 mg/kg per day."}, "[18]": {"tested_on": "HRV-21", "experiment": "Inhibition of virus-induced CPE in HeLa cells (MIC), HRV-21", "assay_type": "cell-based", "details": "Human rhinovirus sp., HRV21, 72 h, 3 day incubation at 33° C.", "experimental": "as §1"}, "[19]": {"tested_on": "HRV-86", "experiment": "Inhibition of virus-induced CPE in HeLa cells (MIC), HRV-86", "assay_type": "cell-based", "details": "Human rhinovirus sp., HRV86, 72 h, 3 day incubation at 33° C.", "experimental": "as §1"}, "[20]": {"tested_on": "coxsackievirus A9", "experiment": "Oral efficacy against coxsackievirus A9 in suckling ICR mice, daily for five days", "assay_type": "in vivo, mice (suckling ICR pups)"}},
  "data": [
    {"smiles": "Cc1cc(CCCOc2c(C)cc(-c3noc(C(F)(F)F)n3)cc2C)on1", "note": "[Example 1e, 5-{3-[2,6--Dimethyl-4-(5-trifluoromethyl-1,2,4-oxadiazol-3-yl)phenoxy]propyl}-3-methylisoxazole]", "values": [
      {"measurement": "MIC", "setting": "[1]", "value": 0.022, "unit": "µg/mL"},
      {"measurement": "MIC50", "setting": "[2]; Human rhinovirus sp., 72 h, minimum concentration required to inhibit 50% of the tested serotypes", "value": 0.0415, "unit": "µg/mL"},
      {"measurement": "MIC80", "setting": "[2]; minimum concentration required to inhibit 80% of the tested serotypes", "value": 0.119, "unit": "µg/mL"},
      {"measurement": "overall MIC80", "setting": "[3]", "value": 0.05, "unit": "µM"},
      {"measurement": "MIC", "setting": "[4]", "value": 0.047, "unit": "µg/mL"},
      {"measurement": "MIC", "setting": "[5]", "value": 0.147, "unit": "µg/mL"},
      {"measurement": "MIC", "setting": "[6]", "value": 0.07, "unit": "µg/mL"},
      {"measurement": "% Alive at Day 17", "setting": "[7]; 2 mg/kg per day, oral", "value": 8, "unit": "%"},
      {"measurement": "% Alive at Day 17", "setting": "[7]; 20 mg/kg per day, oral", "value": 67, "unit": "%"},
      {"measurement": "% Alive at Day 17", "setting": "[7]; 200 mg/kg per day, oral", "value": 92, "unit": "%"},
      {"measurement": "ED50", "setting": "[7]; Enterovirus B, B3, po, coxsackievirus B3, adult male mice, oral, Day 1 to Day 5, read-out: 50% protective dose (PD50)", "value": 12, "unit": "mg/kg"},
      {"measurement": "protection of infected mice, oral", "setting": "[7]; coxsackievirus B3", "value": "orally effective in protecting mice"},
      {"measurement": "efficacy in severe disseminated enterovirus infection model", "setting": "[7]; coxsackievirus B3 infection in mice", "value": "has shown efficacy in this stringent model"},
      {"measurement": "% Alive at Day 17", "setting": "[8]; 9.4 mg/kg per day", "value": 13, "unit": "%"},
      {"measurement": "% Alive at Day 17", "setting": "[8]; 18.8 mg/kg per day", "value": 40, "unit": "%"},
      {"measurement": "% Alive at Day 17", "setting": "[8]; 37.5 mg/kg per day", "value": 75, "unit": "%"},
      {"measurement": "% Alive at Day 17", "setting": "[8]; 75 mg/kg per day", "value": 100, "unit": "%"},
      {"measurement": "ED50", "setting": "[8]; Enterovirus C, A21, po, read-out: 50% protective dose (PD50)", "value": 26, "unit": "mg/kg"},
      {"measurement": "protection of infected mice, oral", "setting": "[8]; coxsackievirus A21", "value": "orally effective in protecting mice"},
      {"measurement": "MIC", "setting": "[9]", "value": 0.338, "unit": "µg/mL"},
      {"measurement": "MIC", "setting": "[10]", "value": 0.154, "unit": "µg/mL"},
      {"measurement": "MIC", "setting": "[11]", "value": 0.027, "unit": "µg/mL"},
      {"measurement": "MIC", "setting": "[12]", "value": 0.036, "unit": "µg/mL"},
      {"measurement": "MIC", "setting": "[13]", "value": 0.015, "unit": "µg/mL"},
      {"measurement": "MIC", "setting": "[14]", "value": 0.054, "unit": "µg/mL"},
      {"measurement": "MIC", "setting": "[15]", "value": 0.011, "unit": "µg/mL"},
      {"measurement": "MIC", "setting": "[16]", "value": 0.119, "unit": "µg/mL"},
      {"measurement": "ED50", "setting": "[17]", "value": 93, "unit": "mg/kg"},
      {"measurement": "MIC", "setting": "[18]", "value": 0.015, "unit": "µg/mL"},
      {"measurement": "MIC", "setting": "[19]", "value": 0.029, "unit": "µg/mL"},
      {"measurement": "% Nonparalyzed at Day 13", "setting": "[20]; 0.2 mg/kg per day, oral", "value": 7, "unit": "%"},
      {"measurement": "% Nonparalyzed at Day 13", "setting": "[20]; 2.0 mg/kg per day, oral", "value": 10, "unit": "%"},
      {"measurement": "% Nonparalyzed at Day 13", "setting": "[20]; 20 mg/kg per day, oral", "value": 10, "unit": "%"},
      {"measurement": "% Nonparalyzed at Day 13", "setting": "[20]; 200 mg/kg per day, oral", "value": 87, "unit": "%"},
      {"measurement": "ED50", "setting": "[20]; Enterovirus B, A9, po, coxsackievirus A9, suckling mice, oral, daily for five days beginning 2.5 days postinfection, read-out: 50% protective dose (PD50)", "value": 88, "unit": "mg/kg"},
      {"measurement": "protection of infected mice, oral", "setting": "[20]; coxsackievirus A9", "value": "orally effective in protecting mice"}
    ]}
  ]
}
